Measurements reported in patent publication US11931424B2, “Combination MCL-1 inhibitors with anti-body drug conjugates” (Gilead Sciences, Inc., priority 2021, dated 2024).

System: panel of breast cancer cell lines
Assay: Compound A with targeted agents and chemotherapies, 72-hour in vitro proliferation assays
Type: cell-based
Conditions: 72-hour proliferation
[1] = AU565 cell line, compound A × partner
[2] = BT-20 cell line, compound A × partner
[3] = BT-474 cell line, compound A × partner
[4] = BT-549 cell line, compound A × partner
[5] = CAL-51 cell line, compound A × partner
[6] = CAL-85-1 cell line, compound A × partner
[7] = CAL-120 cell line, compound A × partner
[8] = CAL-148 cell line, compound A × partner
[9] = CAMA-1 cell line, compound A × partner
[10] = DU-4475 cell line, compound A × partner
[11] = EVSA-T cell line, compound A × partner
[12] = HCC1143 cell line, compound A × partner
[13] = MCF7 cells, Compound A × partner agent
[14] = MDA-MB-175-VII cells, Compound A × partner agent
[15] = MDA-MB-231 cells, Compound A × partner agent
[16] = MDA-MB-361 cells, Compound A × partner agent
[17] = MDA-MB-436 cells, Compound A × partner agent
[18] = MDA-MB-453 cells, Compound A × partner agent
[19] = MDA-MB-468 cells, Compound A × partner agent
[20] = SK-BR-3 cells, Compound A × partner agent
[21] = SUM159PT cells, combination of compound A with the named agent
[22] = T47D cells, combination of compound A with the named agent
[23] = ZR-75-1 cells, combination of compound A with the named agent
[24] = ZR-75-30 cells, combination of compound A with the named agent

SMILES: N.N.[Cl][Pt][Cl] [Cisplatin]
- Best CI [1]: 0.79
- Bliss Volume [1]: 7.67
- HSA volume [1]: −6.49
- Loewe Volume [1]: −5.19
- Synergy Score [1]: 1.66
- Best CI [2]: 0.90
- Bliss Volume [2]: 13.49
- HSA volume [2]: −0.68
- Loewe Volume [2]: −2.71
- Synergy Score [2]: 2.27
- Best CI [3]: 0.47
- Bliss Volume [3]: −2.63
- HSA volume [3]: −4.63
- Loewe Volume [3]: −4.42
- Synergy Score [3]: 2.85
- Best CI [4]: 1.01
- Bliss Volume [4]: 7.35
- HSA volume [4]: 2.86
- Loewe Volume [4]: 4.16
- Synergy Score [4]: 6.80
- Best CI [5]: 0.48
- Bliss Volume [5]: 7.18
- HSA volume [5]: 4.36
- Loewe Volume [5]: 6.98
- Synergy Score [5]: 9.30
- Best CI [6]: 1.09
- Bliss Volume [6]: 6.84
- HSA volume [6]: 4.63
- Loewe Volume [6]: 4.66
- Synergy Score [6]: 6.29
- Best CI [7]: 0.19
- Bliss Volume [7]: 1.51
- HSA volume [7]: 0.51
- Loewe Volume [7]: 1.48
- Synergy Score [7]: 1.13
- Best CI [8]: 0.13
- Bliss Volume [8]: 19.20
- HSA volume [8]: 19.03
- Loewe Volume [8]: 18.76
- Synergy Score [8]: 37.06
- Best CI [9]: 0.23
- Bliss Volume [9]: 16.63
- HSA volume [9]: 9.61
- Loewe Volume [9]: 9.28
- Synergy Score [9]: 18.49
- Best CI [10]: 0.29
- Bliss Volume [10]: 14.10
- HSA volume [10]: 5.48
- Loewe Volume [10]: 5.54
- Synergy Score [10]: 7.00
- Best CI [11]: 0.39
- Bliss Volume [11]: 20.06
- HSA volume [11]: 3.60
- Loewe Volume [11]: 1.90
- Synergy Score [11]: 2.53
- Best CI (HCC38, compound A × partner): 0.60
- Best CI Level (HCC38, compound A × partner): 115
- Bliss Volume (HCC38, compound A × partner): 8.46
- HSA volume (HCC38, compound A × partner): 3.08
- Loewe Volume (HCC38, compound A × partner): 2.06
- Synergy Score (HCC38, compound A × partner): 6.47
- Best CI (HCC70, compound A × partner): 0.45
- Best CI Level (HCC70, compound A × partner): 175
- Bliss Volume (HCC70, compound A × partner): 18.00
- HSA volume (HCC70, compound A × partner): 4.42
- Loewe Volume (HCC70, compound A × partner): 2.24
- Synergy Score (HCC70, compound A × partner): 9.16
- Best CI [12]: 0.39
- Bliss Volume [12]: −0.20
- HSA volume [12]: −5.78
- Loewe Volume [12]: −3.31
- Synergy Score [12]: 2.45
- Best CI (HCC1569, compound A × partner): 0.43
- Best CI Level (HCC1569, compound A × partner): 25
- Bliss Volume (HCC1569, compound A × partner): 1.33
- HSA volume (HCC1569, compound A × partner): −1.41
- Loewe Volume (HCC1569, compound A × partner): −2.74
- Synergy Score (HCC1569, compound A × partner): 1.82
- Best CI (HCC1806, compound A × partner): 0.22
- Best CI Level (HCC1806, compound A × partner): 70
- Bliss Volume (HCC1806, compound A × partner): 8.46
- HSA volume (HCC1806, compound A × partner): 3.81
- Loewe Volume (HCC1806, compound A × partner): 5.93
- Synergy Score (HCC1806, compound A × partner): 7.76
- Best CI (HCC1937, compound A × partner): 1.07
- Best CI Level (HCC1937, compound A × partner): 105
- Bliss Volume (HCC1937, compound A × partner): 1.32
- HSA volume (HCC1937, compound A × partner): −1.15
- Loewe Volume (HCC1937, compound A × partner): −0.59
- Synergy Score (HCC1937, compound A × partner): 1.75
- Best CI (HCC1954, compound A × partner): 0.84
- Best CI Level (HCC1954, compound A × partner): 180
- Bliss Volume (HCC1954, compound A × partner): 5.89
- HSA volume (HCC1954, compound A × partner): −0.89
- Loewe Volume (HCC1954, compound A × partner): −1.88
- Synergy Score (HCC1954, compound A × partner): 5.58
- Best CI (HCC2218, compound A × partner): 0.54
- Best CI Level (HCC2218, compound A × partner): 165
- Bliss Volume (HCC2218, compound A × partner): 9.34
- HSA volume (HCC2218, compound A × partner): 2.71
- Loewe Volume (HCC2218, compound A × partner): −0.66
- Synergy Score (HCC2218, compound A × partner): 7.99
- Best CI (HDQ-P1, compound A × partner): 0.60
- Best CI Level (HDQ-P1, compound A × partner): 30
- Bliss Volume (HDQ-P1, compound A × partner): 0.53
- HSA volume (HDQ-P1, compound A × partner): −0.23
- Loewe Volume (HDQ-P1, compound A × partner): 0.64
- Synergy Score (HDQ-P1, compound A × partner): 1.46
- Best CI (HMC-1-8, compound A × partner): 0.35
- Best CI Level (HMC-1-8, compound A × partner): 180
- Bliss Volume (HMC-1-8, compound A × partner): 20.03
- HSA volume (HMC-1-8, compound A × partner): 7.01
- Loewe Volume (HMC-1-8, compound A × partner): 6.38
- Synergy Score (HMC-1-8, compound A × partner): 14.62
- Best CI (JIMT-1, compound A × partner): 0.61
- Best CI Level (JIMT-1, compound A × partner): 20
- Bliss Volume (JIMT-1, compound A × partner): 0.69
- HSA volume (JIMT-1, compound A × partner): −1.64
- Loewe Volume (JIMT-1, compound A × partner): −0.53
- Synergy Score (JIMT-1, compound A × partner): 1.21
- Best CI (KPL-1, compound A × partner): 0.76
- Best CI Level (KPL-1, compound A × partner): 110
- Bliss Volume (KPL-1, compound A × partner): −0.41
- HSA volume (KPL-1, compound A × partner): 0.95
- Loewe Volume (KPL-1, compound A × partner): 0.45
- Synergy Score (KPL-1, compound A × partner): 4.51
- Best CI [13]: 0.45
- Best CI Level [13]: 150
- Bliss Volume [13]: 11.15
- HSA volume [13]: 4.64
- Loewe Volume [13]: 3.51
- Synergy Score [13]: 6.98
- Best CI [14]: 0.49
- Best CI Level [14]: 60
- Bliss Volume [14]: 9.70
- HSA volume [14]: −1.47
- Loewe Volume [14]: 2.49
- Synergy Score [14]: 4.03
- Best CI [15]: 0.34
- Best CI Level [15]: 70
- Bliss Volume [15]: 5.98
- HSA volume [15]: 4.74
- Loewe Volume [15]: 6.47
- Synergy Score [15]: 4.48
- Best CI [16]: 0.81
- Best CI Level [16]: 165
- Bliss Volume [16]: 3.24
- HSA volume [16]: −1.91
- Loewe Volume [16]: −2.31
- Synergy Score [16]: 3.36
- Best CI [17]: 1.18
- Best CI Level [17]: 120
- Bliss Volume [17]: 2.08
- HSA volume [17]: 1.62
- Loewe Volume [17]: 1.58
- Synergy Score [17]: 2.45
- Best CI [18]: 0.34
- Best CI Level [18]: 70
- Bliss Volume [18]: 13.82
- HSA volume [18]: 4.06
- Loewe Volume [18]: 4.70
- Synergy Score [18]: 9.66
- Best CI [19]: 0.53
- Best CI Level [19]: 105
- Bliss Volume [19]: 27.91
- HSA volume [19]: 5.89
- Loewe Volume [19]: 4.42
- Synergy Score [19]: 8.65
- Best CI [20]: 0.14
- Best CI Level [20]: 150
- Bliss Volume [20]: 19.53
- HSA volume [20]: 6.00
- Loewe Volume [20]: 5.11
- Synergy Score [20]: 10.90
- Best CI [21]: 0.79
- Best CI Level [21]: 20
- Bliss Volume [21]: −1.91
- HSA volume [21]: −4.36
- Loewe Volume [21]: −4.20
- Synergy Score [21]: 0.41
- Best CI [22]: 0.79
- Best CI Level [22]: 80
- Bliss Volume [22]: −0.02
- HSA volume [22]: 0.03
- Loewe Volume [22]: 0.73
- Synergy Score [22]: 3.05
- Best CI [23]: 0.88
- Best CI Level [23]: 155
- Bliss Volume [23]: 9.45
- HSA volume [23]: 7.38
- Loewe Volume [23]: 8.42
- Synergy Score [23]: 12.40
- Best CI [24]: 0.24
- Best CI Level [24]: 95
- Bliss Volume [24]: 14.77
- HSA volume [24]: 8.48
- Loewe Volume [24]: 9.66
- Synergy Score [24]: 16.44
